# Assay results from patent publication US20240424019A1, “SHP1 MODIFIED DENDRITIC CELLS AND EXTRACELLULAR VESICLES DERIVED THEREFROM AND ASSOCIATED METHODS” (BOARD OF REGENTS, THE UNIVERSITY OF TEXAS SYSTEM, priority 2021, published 2024).
# Experiments:
# CD8+ OT-1 T cells = assay: DC-EV in vitro assays (H-2Kb-SIINFEKL on EVs, binding to CD8+ T cells, OT-1 proliferation, IFN-γ ELISA); type: cell-based, mouse; settings: EVs of OVA-loaded BMDCs treated with VitE vs vehicle
# Protocol: To generate DC-EVs, BMDCs or DC2.4 were cultured at a density of 2×10^6 cells/ml and treated with LPS (100 ng/ml) for 18 h and then treated with OVA protein (250 μg/ml) for 24 hours in DCs culture media supplemented with 10% exosome depleted FBS, which is prepared by the first ultracentrifugation at 100,000 g for 16 h, and then filtering using a 100 nm filter. Supernatants were collected from 48-72 h DCs cultures and EVs were purified by a standard differential ultracentrifugation. […] The purified exosomes were then analyzed and used for experimental procedures. […]
# For FACS analysis, exosomes were conjugated with 4 μm aldehyde/sulfate latex beads (Cat. A37304, Thermo Fisher) by overnight incubation. The EVs-bound beads were incubated with glycine to block remaining binding sites and surface expression of SIINFEKL-loaded MHC-I complexes on DC-EVs was determined by staining with anti-mouse H-2K^b bound to SIINFEKL antibody. […]
# To verify the physical interactions between DC-EVs and CD8^+ T cells, purified DC-EVs were stained with DiO (Cat. V22889, Thermo Fisher) in 100 μl PBS, and then washed with 10 ml PBS and pelleted by ultracentrifugation. For cell treatment, DC-EVs (10 μg/ml) (unless specified otherwise) were used on the basis of protein concentration determined by a BCA Protein Assay Kit (Pierce). […] After 72 h, the T-cell proliferation was analyzed by FACS. […]
# human MoDCs = assay: DC activation markers on human MoDCs by flow cytometry; type: cell-based
# From the text: Human leukocyte concentrate (buffy coat) was collected from healthy blood donor volunteers by MD Anderson Blood Donor Center. Written informed consent was obtained from all participating blood donors and the use of anonymized leftover specimens for scientific purposes was approved by the Ethics Committee of the MD Anderson Cancer Center. For the generation of monocyte-derived dendritic cells (MoDCs), peripheral blood of healthy individuals was applied to a Ficoll gradient (BD), and mononuclear cells were freshly isolated and cultured in the dish in a humidified incubator for 1 hour to let monocytes adhere. After removing the medium with non-adherent cells, the adherent monocytes were collected through vigorous pipetting. […]
# We assessed the expression of co-stimulatory molecules on human MoDCs treated with indicated dietary components and nutritional supplements including VitE (50 μg/ml). […] The mean fluorescence intensity (MFI) of each molecule was normalized to the MFI of the vehicle-treated group measured by flow cytometry. We then quantitated DC activation markers CD40, CD86, and HLA-DR on human MoDCs treated with vehicle or VitE (50 μg/ml) for 48 h in the presence of LPS (100 ng/ml), as calculated by relative mean fluorescence intensity (MFI) compared to controls.
# EMT6 mammary tumors = assay: Orthotopic EMT6 mammary tumor model; type: in vivo, mouse
smiles,measurement,setting,value
"Cc1c(C)c2c(c(C)c1O)CC[C@@](C)(CCC[C@H](C)CCC[C@H](C)CCCC(C)C)O2 [VitE, D-α-Tocopherol]",level of H-2Kb-SIINFEKL complexes on DC-EVs,CD8+ OT-1 T cells,increased the level of H-2Kb-SIINFEKL complexes on DC-EVs
same,expression of DC activation markers (relative MFI),"human MoDCs; VitE 50 μg/ml 48 h, LPS 100 ng/ml","significantly increased expression of DC activation markers CD40, CD86, HLA-DR"
same,DC activation compared with other common nutritional supplements,"human MoDCs; VitE 50 μg/ml vs VitC, VitD, VitB, VitB2, VitB12, DHA, 48 h then LPS 24 h",most effectively activated DCs
same,average tumor volume at day 15,"EMT6 mammary tumors; BALB/c mice, n=10 per group, vehicle-treated 350 mm^3",173 mm^3
same,pY564-SHP1 level in TADCs,"EMT6 mammary tumors; CyTOF, day 15 post-implantation, VitE vs vehicle",reduced the pY564-SHP1 level in TADCs
same,therapeutic response,EMT6 mammary tumors; VitE 50 mg/kg and ICT (anti-PD1) combo-treatment,significantly improved therapeutic response
same,tumor growth,EMT6 mammary tumors; VitE alone vs vehicle-treated group,reduced tumor growth
same,tumor infiltration of immune cells (CyTOF of CD45+ cells),EMT6 mammary tumors; VitE treatment vs vehicle,increased the tumor infiltrations of CD11c+DCs and CD8+ T cells
